Data taken from patent publication US6472348B1, “Pyridone derivatives and herbicides” (Kumiai Chemical Industry Co., Ltd., priority 1996, dated 2002).

Assays:
monochoria (Mo) = experiment: Test Example 1: herbicidal effects by paddy field soil treatment; type: in vivo; details: 100 g of the active ingredient per 10 ares, 21st day after the application, index 0-5 of Table 47;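 further: grade of growth control; 5 = at least 90%; 4 = 70 to 90%; 3 = 50 to 70%; 2 = 30 to 50%; 1 = 10 to 30%; 0 = under 10%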
How it was run: (§1)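 Flooded paddy-soil pots (3 cm water) sown after puddling/leveling; treatment 100 g a.i./10 ares; greenhouse culture; herbicidal effect rated visually on a scoring scale at 21 d post-application.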

bulrush (Sc) = experiment: as above; type: in vivo; details: 100 g of the active ingredient per 10 ares, 21st day after the application, index 0-5 of Table 47;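 further: grade of growth control; 5 = at least 90%; 4 = 70 to 90%; 3 = 50 to 70%; 2 = 30 to 50%; 1 = 10 to 30%; 0 = under 10%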
How it was run: as §1

barnyardgrass (Ec) = experiment: as above; type: in vivo; details: 100 g of the active ingredient per 10 ares, 21st day after the application, index 0-5 of Table 47;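 further: grade of growth control; 5 = at least 90%; 4 = 70 to 90%; 3 = 50 to 70%; 2 = 30 to 50%; 1 = 10 to 30%; 0 = under 10%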
How it was run: as §1

rice flatsedge (Ci) = experiment: Test Example 2: herbicidal effects by upland field soil treatment; type: in vivo; details: 100 g of the active ingredient per 10 ares;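 further: grade of growth control; 5 = at least 90%; 4 = 70 to 90%; 3 = 50 to 70%; 2 = 30 to 50%; 1 = 10 to 30%; 0 = under 10%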
Excerpt: (§2) (Test on Herbicidal Effects by Upland Field Soil Treatment)

Digitaria ciliaris (Di) = experiment: as above; type: in vivo; details: 100 g of the active ingredient per 10 ares
Excerpt: as §2

wheat (Tr) [1] = experiment: Test Example 5: crop plant selectivity by upland field soil treatment (wheat), phytotoxicity; type: in vivo; set-up: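 grade of crop injury; 5 = at least 90%; 4 = 70 to 90%; 3 = 50 to 70%; 2 = 30 to 50%; 1 = 10 to 30%; 0 = under 10%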; details: 21st day after application
How it was run: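 Seeds sown in pots of sand and covered with soil. Soil treatment applied. Plants cultured in a greenhouse. Effects rated by standard scale after 21 days.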

wheat (Tr) [2] = experiment: Test Example 9: crop plant selectivity by upland field foliage treatment (wheat), phytotoxicity; details: dose 1.6 g ai/10a, 14th day after treatment
How it was run: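 Read-out: weed control and wheat injury, rated by a defined scoring standard 14 days after foliar application.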

slender amaranth (Am) = experiment: Test Example 7: crop plant selectivity by upland field soil treatment (corn), herbicidal effects; type: in vivo; set-up: scale not given here; details: 21st day after application
How it was run: (§3)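 Seeds of corn and of each weed species are sown in a pot of sand and covered with soil. The compound is applied, and the pots are kept in a greenhouse. On the 21st day, weed control and crop injury are judged by set criteria.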

China jute (Ab) = experiment: as above; type: in vivo; set-up: scale not given here; details: 21st day after application
How it was run: as §3

pale smartweed (Po) = experiment: as above; type: in vivo; set-up: scale not given here; details: 21st day after application
How it was run: as §3

green foxtail (Se) = experiment: as above; type: in vivo; set-up: scale not given here; details: 21st day after application
How it was run: as §3

[3] = test system: common lambsquarters (Ch); experiment: as above; type: in vivo; set-up: scale not given here; details: 21st day after application
How it was run: as §3

[4] = evaluated on the 21st day after application
[5] = 21st day after the application, index 0-5 of Table 47

Structure (SMILES)	Herbicidal effects Mo (monochoria (Mo))	Herbicidal effects Sc (bulrush (Sc))	Herbicidal effects Ec (barnyardgrass (Ec))	Herbicidal effects Ci (rice flatsedge (Ci); [4])	Herbicidal effects Di (Digitaria ciliaris (Di); [4])	Phytotoxicity Tr (wheat (Tr) [1]; dose 6.3 g ai/10a)	Phytotoxicity Tr (wheat (Tr) [2])	Herbicidal effects Am (slender amaranth (Am); dose 1.6 g ai/10a)	Herbicidal effects Ab (China jute (Ab); dose 1.6 g ai/10a)	Herbicidal effects Po (pale smartweed (Po); dose 1.6 g ai/10a)	Herbicidal effects Se (green foxtail (Se); dose 1.6 g ai/10a)	Herbicidal effects Ch ([3]; dose 1.6 g ai/10a)	Herbicidal effects Am (slender amaranth (Am); dose 6.3 g ai/10a)	Herbicidal effects Ab (China jute (Ab); dose 6.3 g ai/10a)	Herbicidal effects Po (pale smartweed (Po); dose 6.3 g ai/10a)	Herbicidal effects Se (green foxtail (Se); dose 6.3 g ai/10a)	Herbicidal effects Ch ([3]; dose 6.3 g ai/10a)	Phytotoxicity Tr (wheat (Tr) [1]; dose 1.6 g ai/10a)	Herbicidal effects Ci (rice flatsedge (Ci); [5])	Herbicidal effects Di (Digitaria ciliaris (Di); [5])
Cn1c(C(F)(F)F)ccc(-c2c(F)cc(Cl)c3occc23)c1=O [Compound No. 4-28, 3-(7-chloro-5-fluorobenzofuran-4-yl)-1-methyl-6-trifluoromethyl-2-(1H)-pyridone]	5	5	5	5	5	2	2	5	5	5	5	5								
CCOC(=O)CON=Cc1cc(-c2ccc(C(F)(F)F)n(C)c2=O)c(F)cc1Cl [Compound 1-191]	5	5	5	5	5	1	2						5	5	5	5	5			
C#CCOc1cc(-c2ccc(C(F)(F)F)n(N)c2=O)c(F)cc1Cl [1-178]	5	5	5	5	5		2	5	5	5	5	5						1		
C#CCN1C(=O)COc2cc(Cl)c(-c3ccc(C(F)(F)F)n(C)c3=O)cc21 [Compound 2-25]	5	5	5	5	5	2	2	5	5	5	5	5						1		
CSCOc1cc(-c2ccc(C(F)(F)F)n(C)c2=O)c(F)cc1Cl [Compound 1-208]	5	5	5	5	5	1	2						5	5	4	5	5			
COc1cc(-c2ccc(C(F)(F)F)n(N)c2=O)c(F)cc1Cl [1-179]	5	5	5	5	5	1	2						5	5	5	5	5			
Cn1c(C(F)(F)F)ccc(-c2cc(OCC3CC3)c(Cl)cc2F)c1=O [1-160]	5	5	5			2	2						5	5	5	5	5		5	5
C#CCOc1cc(-c2ccc(C(F)(F)F)n(C)c2=O)c(Cl)cc1Cl [1-30]	5	5	5				2	5	5	5	5	5	5	5	5	5	5	2	5	5
